Measurements from patent US8716231B2, “Use of benzo-fused heterocycle sulfamide derivatives for the treatment of pain” (Janssen Pharmaceutica NV, priority 2005, dated 2014).

What was measured:
[1] = tested on: formalin-induced inflammatory-mediated pain response (licking of injected hind-paw); assay: Mouse Formalin Assay (NINDS); assay type: in vivo, mice
Method: The mouse formalin test is an acute and chronic model for testing the ability of a test compound for the treatment of pain.
In the Mouse Formalin Test, 0.5% formalin was injected s.c. into the plantar region of the hind-paw of adult male mice to induce an inflammatory-mediated pain response. Pain was expressed as licking of the injected area in a bi-modal manner—acute and chronic phase. The acute phase occurred immediately and lasted approximately […] post-injection, representing direct stimulation of pain fibers. Licking behavior resumes approximately 10 mins later (˜20 min post injection) and lasted 10-15 min, representing the chronic phase hypothesized to be caused by the release of inflammatory mediators such as cytokines.
Activity in the acute phase of the formalin test is an indicator of acute pain believed to correlate with peripheral pain pathways.
Compound #8 was evaluated in the Mouse Formalin Test as described above. […] For the acute phase the decrease was 52% from control (p<0.01), while for the chronic phase the decrease was 43% from control (p<0.01).

[2] = tested on: paclitaxel-evoked mechano-allodynia and mechano-hyperalgesia; assay: Taxol Induced Peripheral Neuropathy Model (longer term study, Example 20); assay type: in vivo, Sprague-Dawley rats
Method: Paclitaxel (Taxol®, Bristol-Myers-Squibb; 6 mg/ml in a 50:50 mixture of Cremophor and ethanol) was diluted just before use with saline to a concentration of 2 mg/ml and injected IP in a volume of 1 ml/kg) on four alternate days (D0, D2, D4, and D6).
Adult male Sprague-Dawley rats (Harlan, Indianapolis, Ind.; Frederick, Md. breeding colony) were caged on sawdust bedding in groups of 3-4 with food and water available ad libitum and a 12:12 hr light-dark cycle.
Group 3 was treated with an equal volume of vehicle, daily, starting on D0 (the same day as the beginning of paclitaxel dosing).
The animals were habituated to the testing environment on three separate days and then three daily baseline sessions were given to measure the normal response rate to stimulation with von Frey hairs exerting 4 g or 15 g of pressure (4 gVFH and 15 gVFH). Normal rats rarely, if ever, withdraw from stimulation with 4 gVFH; thus, a post-paclitaxel increase in responding to this stimulus is indicative of mechano-allodynia. Normal rats withdraw from stimulation with 15 gVFH 10-20% of the time; thus an increased response frequency to this stimulus is indicative of mechano-hyperalgesia.
The animals were positioned beneath upturned plastic mouse cages atop an elevated platform with wire-mesh flooring. Each VFH was applied to the glabrous skin of the mid-heel and the presence or absence of a withdrawal response was noted. This was repeated 5 times on each hind paw and the animal's responses were summarized as a percent response score (e.g., 5 withdrawal responses to 15gVFH stimulation would yield a score of 50%). Behavior was assessed by an observer who was blind as to group assignment.
Behavioral tests for paclitaxel's effects began on day 13 (D13) and were repeated on D15, D17, D21, D24, D28, D31, D35 and D38. […] For these days the drug was given at 0900 h and behavioral tests began at 1300 h. Significant paclitaxel-evoked mechano-allodynia and mechano-hyperalgesia were expected to develop 10-14 days after the last injection of paclitaxel.

[3] = tested on: CFA induced thermal hypersensitivity (radiant heat paw withdrawal latency); assay: Complete Freund's Adjuvant (CFA)-induced Model of Inflammatory Pain; assay type: in vivo, Sprague-Dawley rats; conditions: 560 mg/kg oral; 4 hr after oral administration
Method: Intraplantar injection of CFA in rats results in a long-lasting inflammatory reaction, characterized by edema and a pronounced hypersensitivity to both thermal and mechanical stimuli. This hypersensitivity peaks between 24-72 hours after injection and can last for several weeks. This assay predicts the analgesic, antiallodynic and/or antihyperalgesic effect of test compounds.
Test compound and controls were dissolved in the appropriate volume of 0.5% HPMC or 10% solutol in 0.5% hydoxypropyl methylcellulose (HPMC). Solutions were prepared to provide the final dose in a volume of 2.5 mL/kg or 5 mL/kg p.o. for rats. Male, Sprague-Dawley rats from Charles Rivers Laboratories (Portage, Me.), weighing between 250 and 350 grams at the time of study, were used for the CFA paw radiant heat studies.
Rats in the CFA study were moved to a testing room the day of the CFA injection, where they remained for the duration of the study. […]
On the day of study, rats were given a 100 μL (1 μg/μL) intraplantar injection of CFA (1:1 CFA:saline) into their left hindpaw. […] Percent Reversal of hyperalgesia was calculated for each animal as [(treatment response)−(post-CFA response)]/[(pre-CFA response)−(post-CFA response)]×100. Average % reversal of hyperalgesia was then calculated for each treatment group (n=5-6 rats/group). […]

[4] = tested on: formalin-induced hyperalgesia (paw licking); assay: Formalin-Induced Hyperalgesia Model; assay type: in vivo, CF-1 mice; conditions: Mus musculus; i.p., 2 hours before formalin; 95% CI range 53.6-225 mg/kg; read-out: median effective dose (ED50) for a 50% or greater reduction in AUC, secondary phase (phase 2, inflammatory)
Method: Adult male CF-1 mice weighing 2-0 g were obtained from Charles River (Wilmington, Mass.). All animals were house on a 12:12 light:dark cycle and permitted free access to both food and water, except when removed from the home cage for experimental procedures.
In this model, the injection of formalin elicits a distinct biphasic behavioral profile characterized by the mouse licking the affected paw. Immediately after the injection, the mouse licks the paw for about 10 minutes. This corresponds to phase 1 (acute response) and is followed by a brief latency period where there is little behavioral activity. A more prolonged period of about 20-30 minutes of paw licking ensues which constitutes phase 2 (inflammatory).
Two hours after administration, formalin was injected sub-dermally (20 μL, 27 gauge needle) into the plantar surface of the right hind foot. The bevel of the needle was placed facing down toward the skin surface. […] The cumulative length of licking for each 2 minute period was recorded. […] Animals were euthanized following the conclusion of the experiment.
Area under the curve (AUC) determinations were made using the GraphPad Prism Version 3.03. Total AUC was calculated for both the dosed and control groups for both acute and inflammatory phases. The AUC of individual animals for each phase was also calculated and converted to a percentage of total AUC of control.

[5] = 110 mg/kg, i.p. 15 min prior to formalin injection, p<0.01
[6] = both 60 mg/kg and 120 mg/kg PO daily for 20 days from D0, paclitaxel 2 mg/kg IP D0, D2, D4, D6

## NS(=O)(=O)NC[C@H]1COc2cc(Cl)ccc2O1 [Compound #8, (2S)-(−)-N-(6-Chloro-2,3-dihydro-benzo[1,4]dioxin-2-ylmethyl)-sulfamide]
[1]; 60 mg/kg i.p., p<0.01
  chronic phase decrease from control: 40%
[1]; 60 mg/kg i.p., p<0.05
  acute phase decrease from control: 30%
[1]; [5]
  acute phase decrease from control: 52%
  chronic phase decrease from control: 43%
[2]; 60 mg/kg and 120 mg/kg PO daily
  continuation of suppressive effect after the last injection: approximately 11 days
[2]; 60 mg/kg and 120 mg/kg PO daily for 20 days
  side-effects: no apparent side-effects
[2]; [6]
  development of mechano-allodynia (4 gVFH test): suppressed the development of mechano-allodynia and mechano-hyperalgesia
  development of mechano-hyperalgesia (15 gVFH test): suppressed the development of mechano-allodynia and mechano-hyperalgesia
[3]
  peak reversal of thermal hypersensitivity (compared with the 24-hr post-CFA baseline): 86.0%
[4]
  ED50: 101 mg/kg

## NCC1(CC(=O)O)CCCCC1 [gabapentin, reference compound]
[3]
  peak reversal of thermal hypersensitivity (compared with the 24-hr post-CFA baseline): 68.6%
